From PubChem BioAssay AID1033 (Sanford-Burnham Center for Chemical Genomics, 2008)
Active and inactive are the calls of the source. No rule for the calls is given here.

target: Chaperone protein DnaK (Escherichia coli (strain K12)) (UniProt P0A6Y8); assay: binders of DnaK substrate-binding domain, biophysical, NMR, chaperone (AID 1033); conditions: Purified DnaK SBD, NMR ligand binding
Sequence (P0A6Y8 whole entry, looked up, the tested form may be a part): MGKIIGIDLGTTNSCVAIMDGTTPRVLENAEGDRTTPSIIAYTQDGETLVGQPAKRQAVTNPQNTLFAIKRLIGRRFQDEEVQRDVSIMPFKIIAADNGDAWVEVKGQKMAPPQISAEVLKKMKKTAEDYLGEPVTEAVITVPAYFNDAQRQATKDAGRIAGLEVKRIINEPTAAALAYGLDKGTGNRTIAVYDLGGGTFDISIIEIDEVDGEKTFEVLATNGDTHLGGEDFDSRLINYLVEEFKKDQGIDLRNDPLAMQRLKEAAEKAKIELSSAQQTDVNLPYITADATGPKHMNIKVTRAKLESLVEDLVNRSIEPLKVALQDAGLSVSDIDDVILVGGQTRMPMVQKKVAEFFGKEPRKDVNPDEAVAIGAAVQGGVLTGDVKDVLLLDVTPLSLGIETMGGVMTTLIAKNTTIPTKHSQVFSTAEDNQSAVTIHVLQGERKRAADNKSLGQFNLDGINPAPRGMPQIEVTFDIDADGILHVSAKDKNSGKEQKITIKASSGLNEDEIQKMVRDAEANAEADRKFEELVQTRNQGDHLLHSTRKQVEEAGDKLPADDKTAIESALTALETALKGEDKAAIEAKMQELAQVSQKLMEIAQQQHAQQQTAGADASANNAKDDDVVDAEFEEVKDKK

Row | Compound | Kd
1 | Cc1ccc(C(C)C)cc2c(C)ccc1-2 | > 4 mM (inactive)
2 | NC(=O)Cn1cnc2c(cnn2-c2ccccc2)c1=O | > 4 mM (inactive)
3 | O=C(O)C(Cc1cnc[nH]1)N1C(=O)c2ccccc2C1=O (stereo unspecified) | > 4 mM (inactive)
4 | O=C(O)c1ccc(NCc2cccnc2)cc1 | > 4 mM (inactive)
5 | OCc1ccc(-n2cccn2)cc1 | > 4 mM (inactive)
6 | Nc1nnc(SCc2ccccc2Cl)s1 | > 4 mM (inactive)
7 | CC(=O)Oc1ccc(O)cc1 | > 4 mM (inactive)
8 | Nc1cccc(CC(=S)N2CCOCC2)c1 | > 4 mM (inactive)
9 | COc1ccc2c(=O)c(CC(=O)O)coc2c1 | > 4 mM (inactive)
10 | NC(=O)c1ccc(C(N)=O)cc1 | > 4 mM (inactive)
11 | CC1=NN(c2ccc(N)cc2)C(=O)C1 | > 4 mM (inactive)
12 | NC(=O)c1cccc2c1OCCO2 | > 4 mM (inactive)
13 | CC(=O)N1CCc2ccccc2C1CC(=O)O (stereo unspecified) | > 4 mM (inactive)
14 | Cc1cc(C)n(CCC(=O)O)n1 | > 4 mM (inactive)
15 | Cc1nc2ccccc2c2c1C(=O)N(C)C2=O | > 4 mM (inactive)
16 | CCC(C)OC1CCS(=O)(=O)C1 (stereo unspecified) | > 4 mM (inactive)
17 | CC[C@@]1(O)C[C@H](O)c2c(cc3c(c2O)C(=O)c2c(O)ccc(O)c2C3=O)[C@H]1C(=O)OC | > 4 mM (inactive)
18 | Cc1cc(N)n(-c2ccccc2)n1 | > 4 mM (inactive)
19 | CSc1ncc(C(=O)O)n1Cc1ccccc1 | > 4 mM (inactive)
20 | CN1CCn2c1nc(N1CCOCC1)nc2=O | > 4 mM (inactive)
21 | CC(=O)Nc1ccn(Cc2c(F)cccc2Cl)n1 | > 4 mM (inactive)
22 | CCc1cc(=O)[nH]c(SCC(=O)NCCOC)n1 | > 4 mM (inactive)
23 | NC(=O)C1CCN(c2ncnc(N)c2[N+](=O)[O-])CC1 | > 4 mM (inactive)
24 | NC(=O)CSc1nnc2ccc3ccccc3n12 | > 4 mM (inactive)
25 | CN1CCN(S(=O)(=O)c2ccc(=O)[nH]c2)CC1 | > 4 mM (inactive)

Row | Compound | Kd
26 | COc1ccc(NC(=O)c2ccc[n+]([O-])c2)cc1 | > 4 mM (inactive)
27 | CSc1ccccc1NC(=O)c1ccco1 | > 4 mM (inactive)
28 | O=C1O[C@H](C(O)CO)C(O)=C1O (stereo partly specified) | > 4 mM (inactive)
29 | NS(=O)(=O)c1ccc(NC(=O)C(F)(F)F)cc1 | > 4 mM (inactive)
30 | C[C@@H]1CC[C@H]2[C@@H](C)C(=O)O[C@@H]3OC4(C)CC[C@@H]1[C@]32OO4 | > 4 mM (inactive)
31 | O=C(c1nc2ncccn2n1)N1CCc2ccccc2C1 | > 4 mM (inactive)
32 | CN1CCN(C2CCSC2)CC1 (stereo unspecified) | > 4 mM (inactive)
33 | O=C(N1CCOCC1)N1CCN(c2ccccn2)CC1 | > 4 mM (inactive)
34 | CC(=O)NC(=S)Nc1ccc(N(C)C(C)=O)cc1 | > 4 mM (inactive)
35 | Nc1cc(F)nc(F)n1 | > 4 mM (inactive)
36 | Cc1cc(NC(=O)Cc2c(F)cccc2Cl)no1 | > 4 mM (inactive)
37 | COc1c2c(cc3c1OCO3)CCN(C)C2 | > 4 mM (inactive)
38 | O=C(Nc1cccnc1)c1ccc(Br)s1 | > 4 mM (inactive)
39 | Cc1cc(=O)n2ccc(CN3CCOCC3)c(O)c2n1 | > 4 mM (inactive)
40 | CCOC(=O)c1c(C)cc(O)c(C)c1O | > 4 mM (inactive)
41 | OCc1ccc2c(c1)OCCO2 | > 4 mM (inactive)
42 | Cc1cc(C(=O)Nc2ccon2)cs1 | > 4 mM (inactive)
43 | CSc1cccc(NC(=O)c2c(Cl)cnn2C)c1 | > 4 mM (inactive)
44 | CN1CCN(c2nc3c(c(=O)[nH]2)CCCC3)CC1 | > 4 mM (inactive)
45 | O=C(c1ccccc1)c1cncc(Br)c1 | > 4 mM (inactive)
46 | N#Cc1cnn(Cc2ccc(Cl)cc2)c1N | > 4 mM (inactive)
47 | CN1C(=O)C2CC=C(Cl)CC2C1=O (stereo unspecified) | > 4 mM (inactive)
48 | COC(=O)CC1C(C)(C)C(OC(C)=O)[C@@H]2[C@@H](OC(C)=O)[C@]34O[C@@]2(O)[C@]1(C)C3CC[C@]1(C)C4=CC(=O)O[C@H]1c1ccoc1 (stereo partly specified) | > 4 mM (inactive)
49 | c1ccc2[nH]c(CCn3cncn3)nc2c1 | > 4 mM (inactive)
50 | O=C1c2ccccc2C(=O)N1CCc1ccccn1 | > 4 mM (inactive)

Row | Compound | Kd
51 | Nc1nc2ccc(C(=O)O)cc2s1 | > 4 mM (inactive)
52 | CC1(C)Cn2c(nnc2-c2ccccc2)S1 | > 4 mM (inactive)
53 | COc1ccc2c(c1OC)C(=O)O[C@H]2[C@H]1c2cc3c(cc2CCN1C)OCO3 | > 4 mM (inactive)
54 | CNC(=O)C1=NCCCc2cc(OC)c(OC)cc21 | > 4 mM (inactive)
55 | O=C(CSc1ncccn1)NCc1ccco1 | > 4 mM (inactive)
56 | O=C(Nc1cccnc1)N1CCOCC1 | > 4 mM (inactive)
57 | Cc1cc(C)n2nc(SCC(=O)c3ccccc3)nc2n1 | > 4 mM (inactive)
58 | Cc1ccc2c(c1)=C(c1sc(N)nc1O)C(=O)N=2 | > 4 mM (inactive)
59 | CC(=O)Nc1ccc(NC(=O)c2ccnn2C)cc1 | > 4 mM (inactive)
60 | O=C(O)Cn1nnn(-c2ccccc2)c1=S | > 4 mM (inactive)
61 | Clc1ccccc1-c1nc(-c2cccnc2)no1 | > 4 mM (inactive)
62 | c1ccc(C[N+]23CCN(CC2)CC3)cc1 | > 4 mM (inactive)
63 | CC(=O)c1ccc(N2C(=O)C(C(C)C)NC2=S)cc1 (stereo unspecified) | > 4 mM (inactive)
64 | Cc1ccc2[nH]c3nc(=S)[nH]nc3c2c1 | > 4 mM (inactive)
65 | Cc1nnc(NCCN2CCOCC2)[nH]c1=O | > 4 mM (inactive)
66 | Cc1nn(CC(=O)N2CCCCC2)c(=O)c2ccccc12 | > 4 mM (inactive)
67 | O=C1c2ccccc2C(=O)N1/N=C/c1ccc[nH]1 | > 4 mM (inactive)
68 | O=C(CSc1ccnc(=O)[nH]1)NCc1ccccc1 | > 4 mM (inactive)
69 | O=C1C=CC(=O)c2c(O)cccc21 | > 4 mM (inactive)
70 | COc1ccc(S(=O)(=O)N2CCOCC2)cc1C(C)C | > 4 mM (inactive)
71 | O=C(NCc1cccs1)c1ccc2c(c1)OCCO2 | > 4 mM (inactive)
72 | O=[N+]([O-])c1ccc(/C=N/c2ncn[nH]2)cc1 | > 4 mM (inactive)
73 | CCc1c(C)[nH]c(=S)c(C(N)=O)c1C | > 4 mM (inactive)
74 | CCCc1nc2ccccc2c2nc(N)nn12 | > 4 mM (inactive)
75 | Cc1nc2c(n1O)CCc1c-2no[n+]1[O-] | > 4 mM (inactive)

Row | Compound | Kd
76 | Cc1noc(-c2ccccc2)c1CO | > 4 mM (inactive)
77 | Cc1cc(=O)n2[nH]c(N)nc2n1 | > 4 mM (inactive)
78 | CN(C)C(=O)Oc1ccc(-c2nnco2)cc1 | > 4 mM (inactive)
79 | CN(c1ccccc1C(=O)N1CCCC1)S(C)(=O)=O | > 4 mM (inactive)
80 | CCc1nnsc1C(=O)Nc1nccs1 | > 4 mM (inactive)
81 | CC1(C)NC(=O)N(CN2CCOCC2)C1=O | > 4 mM (inactive)
82 | CC1(C)CC23C(=O)CCC(O)C2(C)CCC13 (stereo unspecified) | > 4 mM (inactive)
83 | CC1(C)Cc2nc(N3CCOCC3)c(C#N)cc2CO1 | > 4 mM (inactive)
84 | NC(=O)Cc1nc(-c2ccccc2)cs1 | > 4 mM (inactive)
85 | O=C1CS/C(=N/N=C2CCCC2)N1 | > 4 mM (inactive)
86 | Cn1nc(-c2ccccc2)cc1N | > 4 mM (inactive)
87 | CNC(=O)c1cc(S(=O)(=O)N(C)C)ccc1Cl | > 4 mM (inactive)
88 | COC(=O)[C@]1(C)CCC[C@]2(C)c3ccc(C(C)C)cc3C(=O)CC12 (stereo partly specified) | > 4 mM (inactive)
89 | CNc1ccccc1C(=O)O | > 4 mM (inactive)
90 | Cn1c(=O)c2ccccc2n(Cc2ccccc2F)c1=O | > 4 mM (inactive)
91 | Cc1onc(-c2ccccc2)c1CO | > 4 mM (inactive)
92 | COc1cccc(NC(=O)c2cccs2)c1 | > 4 mM (inactive)
93 | COc1ccc(Cl)c(S(=O)(=O)N2CCCC2)c1 | > 4 mM (inactive)
94 | CC(=O)Oc1cc2c(C(C)=O)coc2c2ccccc12 | > 4 mM (inactive)
95 | COC(=O)c1ccc(N2CCCC2)nc1 | > 4 mM (inactive)
96 | COCCn1c(C)cc(O)cc1=O | > 4 mM (inactive)
97 | NC1CN2CCC1CC2 (stereo unspecified) | > 4 mM (inactive)
98 | O=C1NC(=S)N/C1=C/c1ccsc1 | > 4 mM (inactive)
99 | O=C(O)c1ccc2c(c1)OCCCO2 | > 4 mM (inactive)
100 | Cc1nnsc1C(=O)Nc1cccc(S(N)(=O)=O)c1 | > 4 mM (inactive)

Row | Compound | Kd
101 | O=C(NN1C(=O)CSC1=S)c1ccccc1 | > 4 mM (inactive)
102 | COc1c(-c2coc3cc4c(cc3c2=O)CC(O)C(C)(C)O4)ccc2c1C=CC(C)(C)O2 (stereo unspecified) | > 4 mM (inactive)
103 | Cc1cccc(NC(=O)c2ccc(=O)[nH]n2)c1 | > 4 mM (inactive)
104 | Cc1ccc(SCC(=O)N2CCOCC2)cc1 | > 4 mM (inactive)
105 | O=C1NCCCC1C(=O)N/N=C/c1ccccc1 (stereo unspecified) | > 4 mM (inactive)
106 | O=C(NC1CCS(=O)(=O)C1)C1CCCCC1 (stereo unspecified) | > 4 mM (inactive)
107 | COc1cc(/C=C/C(=O)/C=C(O)/C=C/c2ccc(O)c(OC)c2)ccc1O | > 4 mM (inactive)
108 | Cc1ccc(CN2CCN(C(=O)C3CCC3)CC2)cc1 | > 4 mM (inactive)
109 | O=C(O)CN1C(=O)c2cccc([N+](=O)[O-])c2C1=O | > 4 mM (inactive)
110 | O=C(O)c1cnn2ccccc12 | > 4 mM (inactive)
111 | O=C(Nc1ccc(Cl)cn1)c1cnn2cccnc12 | > 4 mM (inactive)
112 | Cc1nnc(SCc2cccs2)[nH]c1=O | > 4 mM (inactive)
113 | Clc1ccc2c(N3CCNCC3)ccnc2c1 | > 4 mM (inactive)
114 | Cc1noc(-c2ccccc2)c1C(=O)O | > 4 mM (inactive)
115 | CCCn1c(C)cc(=O)[nH]c1=O | > 4 mM (inactive)
116 | COC(=O)Nc1nnc(-c2ccncc2)s1 | > 4 mM (inactive)
117 | CC(=O)O[C@@H]1CC[C@@]2(C)C(CC[C@]3(C)C2CC=C2C4CC(C)(C)CC[C@]4(C(=O)O)CC[C@]23C)C1(C)C (stereo partly specified) | > 4 mM (inactive)
118 | O=c1nc(C(F)(F)F)nc2ccccn12 | > 4 mM (inactive)
119 | Cc1ccccc1NC(=O)N1CCOCC1 | > 4 mM (inactive)
120 | C=C1C([C@]2(C)C(CC(=O)OC)[C@@](C)(COC(C)=O)OC(=O)C[C@@H]2OC(C)=O)[C@@H](OC=O)[C@H](OC(=O)C(OC(C)=O)C(C)CC)[C@@]2(C)[C@H](c3ccoc3)CC(=O)C12O (stereo partly specified) | > 4 mM (inactive)
121 | COc1ccc(-c2coc3cc(OC(C)=O)cc(OC(C)=O)c3c2=O)cc1 | > 4 mM (inactive)
